Source: ChEMBL document CHEMBL1201862, “PubChem BioAssay data set” (2004)
Active and inactive are the calls of the source.

Tests used:
[1] = cytotoxicity in MITF-independent A375 cells – cell-based, CellTiter-Glo luminescence, dry powder, set 4, counter-screen for MITF inhibitor project, dose response (AID 624364); assay type: functional; details: A-375;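 also: A375 melanoma cells are MITF independent so this is a counter screen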
[2] = viability loss in MITF-independent A375 cells – cell-based, CellTiter-Glo luminescence, dry powder, set 2, counter-screen for MITF inhibitor project, dose response (AID 624489); assay type: functional; details: A-375;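 also: actives are compounds lowering A375 viability meaning general cytotoxicity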
[3] = inhibitors of non-replicating M. tuberculosis, dose response, luciferase, dry powder (AID 651619); assay type: functional; details: Mycobacterium tuberculosis
[4] = inhibitors of non-replicating M. tuberculosis, dose response, luciferase, dry powder (AID 651620); assay type: functional; details: Mycobacterium tuberculosis
[5] = biological target: T1, Low molecular weight phosphotyrosine protein phosphatase (Homo sapiens, UniProt P24666); assay type: functional; details: read-out: IC50_Mean;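 also: Dose-response confirmation assay measuring inhibition of LMPTP enzyme activity by fluorescence intensity read-out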
T1 sequence (P24666 whole entry): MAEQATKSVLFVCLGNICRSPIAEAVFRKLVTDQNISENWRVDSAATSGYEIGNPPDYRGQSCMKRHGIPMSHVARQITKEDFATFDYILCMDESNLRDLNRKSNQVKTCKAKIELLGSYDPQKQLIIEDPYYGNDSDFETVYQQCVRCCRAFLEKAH

[6] = biological target: T1, Low molecular weight phosphotyrosine protein phosphatase; experiment: inhibition of LMPTP-A enzymatic activity – biochemical, OMFP substrate, fluorescence intensity, set 2, dose response (AID 743307); assay type: functional
[7] = biological target: T1, Low molecular weight phosphotyrosine protein phosphatase; experiment: inhibition of human LMPTP enzyme activity – biochemical, absorbance, pNPP substrate, LMPTP-A isoform, set 2, orthogonal assay, dose response (AID 743308); assay type: functional
[8] = Dd2 parasite growth inhibition in erythrocytes – SYBR Green, dry powder samples, set 9, dose response (AID 1159568); assay type: functional, cell-based
[9] = HIV-1 Vif–A3G interaction blockers – biochemical, TR-FRET, GST-Vif 1-94, biotin-A3G peptide, dose response retest, primary screen (AID 1117319); assay type: functional;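 also: TR-FRET signal of purified GST-Vif binding a biotinylated A3G peptide; inhibitors lower the FRET signal by blocking Vif and A3G binding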
[10] = biological target: Metabotropic glutamate receptor 7 (Homo sapiens, UniProt Q14831); experiment: potentiation of glutamate EC20 at mGlu7 – cell-based, calcium mobilization, Galpha15, dose response (AID 743384); assay type: functional
Metabotropic glutamate receptor 7, sequence (Q14831 whole entry): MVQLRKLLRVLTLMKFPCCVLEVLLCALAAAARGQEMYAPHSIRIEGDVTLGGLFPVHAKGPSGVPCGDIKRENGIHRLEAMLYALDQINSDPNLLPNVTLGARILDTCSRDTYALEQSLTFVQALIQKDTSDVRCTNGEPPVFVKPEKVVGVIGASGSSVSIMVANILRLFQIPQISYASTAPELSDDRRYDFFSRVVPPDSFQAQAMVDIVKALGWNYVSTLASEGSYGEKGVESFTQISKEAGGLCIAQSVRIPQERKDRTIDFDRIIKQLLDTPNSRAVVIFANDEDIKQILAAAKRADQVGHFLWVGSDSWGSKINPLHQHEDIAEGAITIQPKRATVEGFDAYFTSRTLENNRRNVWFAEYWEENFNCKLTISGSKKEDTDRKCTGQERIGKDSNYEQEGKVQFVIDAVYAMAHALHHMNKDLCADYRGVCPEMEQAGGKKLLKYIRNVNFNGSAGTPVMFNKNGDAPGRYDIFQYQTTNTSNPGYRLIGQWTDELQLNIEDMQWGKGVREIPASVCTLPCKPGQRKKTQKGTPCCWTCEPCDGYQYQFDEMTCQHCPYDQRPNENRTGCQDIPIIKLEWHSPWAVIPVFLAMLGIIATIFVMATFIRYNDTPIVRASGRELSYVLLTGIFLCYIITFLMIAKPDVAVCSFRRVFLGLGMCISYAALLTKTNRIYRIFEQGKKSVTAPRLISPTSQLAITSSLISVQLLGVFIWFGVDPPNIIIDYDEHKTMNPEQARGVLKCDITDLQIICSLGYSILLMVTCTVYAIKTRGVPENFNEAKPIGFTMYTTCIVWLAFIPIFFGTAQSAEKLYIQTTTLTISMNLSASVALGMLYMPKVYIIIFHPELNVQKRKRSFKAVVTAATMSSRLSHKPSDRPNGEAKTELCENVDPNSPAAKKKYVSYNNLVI

[11] = biological target: Glutathione-S-transferase (Schistosoma japonicum, UniProt Q26513); experiment: GST-antibody interaction or FRET quenching – biochemical, TR-FRET, artefact control for Vif-APOBEC3G degradation inhibitor project, dose response (AID 1117362); assay type: functional
Glutathione-S-transferase, sequence (Q26513 whole entry): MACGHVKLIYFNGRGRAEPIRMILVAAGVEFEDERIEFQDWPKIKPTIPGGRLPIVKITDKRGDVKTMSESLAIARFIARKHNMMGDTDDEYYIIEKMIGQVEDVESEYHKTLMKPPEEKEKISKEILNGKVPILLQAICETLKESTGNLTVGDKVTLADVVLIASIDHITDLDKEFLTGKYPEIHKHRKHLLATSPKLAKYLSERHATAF

Vasopressin V1b receptor = Vasopressin V1b receptor (Homo sapiens, UniProt P47901); experiment: Late-stage results from the probe development effort to identify antagonists of arginine vasopressin receptor 1a (AVPR1a): fluorescence-based cell-based dose response AVPR1b inhibition counterscreen assay.; assay type: functional
Vasopressin V1b receptor, sequence (P47901 whole entry): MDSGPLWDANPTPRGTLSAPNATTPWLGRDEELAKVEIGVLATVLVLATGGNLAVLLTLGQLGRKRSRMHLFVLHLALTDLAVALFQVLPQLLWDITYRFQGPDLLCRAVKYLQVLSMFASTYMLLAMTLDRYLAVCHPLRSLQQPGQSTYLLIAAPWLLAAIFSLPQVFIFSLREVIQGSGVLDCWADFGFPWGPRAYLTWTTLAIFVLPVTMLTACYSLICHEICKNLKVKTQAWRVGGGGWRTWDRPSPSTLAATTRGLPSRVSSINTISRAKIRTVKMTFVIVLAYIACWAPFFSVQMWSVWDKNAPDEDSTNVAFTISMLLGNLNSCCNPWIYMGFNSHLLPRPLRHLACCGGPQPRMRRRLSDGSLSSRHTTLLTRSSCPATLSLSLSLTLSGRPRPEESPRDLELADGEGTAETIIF

[12] = Late-stage results from the probe development effort to identify antagonists of arginine vasopressin receptor 1a (AVPR1a): fluorescence-based cell-based dose response AVPR1a inhibition assay.; assay type: functional
Vasopressin V2 receptor = Vasopressin V2 receptor (Homo sapiens, UniProt P30518); experiment: Late-stage results from the probe development effort to identify antagonists of arginine vasopressin receptor 1a (AVPR1a): fluorescence-based cell-based dose response AVPR2 inhibition counterscreen assay.; assay type: functional
Vasopressin V2 receptor, sequence (P30518 whole entry): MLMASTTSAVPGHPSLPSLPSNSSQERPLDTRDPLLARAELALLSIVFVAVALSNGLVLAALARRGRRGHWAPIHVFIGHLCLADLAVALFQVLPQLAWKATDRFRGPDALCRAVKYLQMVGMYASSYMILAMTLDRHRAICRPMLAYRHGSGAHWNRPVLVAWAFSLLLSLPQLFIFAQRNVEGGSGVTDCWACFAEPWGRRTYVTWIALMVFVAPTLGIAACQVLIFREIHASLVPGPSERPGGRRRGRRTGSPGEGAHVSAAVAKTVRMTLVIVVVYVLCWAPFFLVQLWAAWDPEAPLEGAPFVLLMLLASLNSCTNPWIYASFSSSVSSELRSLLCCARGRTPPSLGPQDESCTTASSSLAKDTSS

[13] = Late-stage results from the probe development effort to identify antagonists of arginine vasopressin receptor 1a (AVPR1a): fluorescence-based cell-based dose response OXTR inhibition counterscreen assay.; assay type: functional
[14] = biological target: T2, Methionyl-tRNA synthetase, putative (Trypanosoma brucei brucei, UniProt Q38C91); assay type: functional, Trypanosoma brucei brucei strain 927/4 GUTat10.1
T2 sequence (Q38C91 whole entry): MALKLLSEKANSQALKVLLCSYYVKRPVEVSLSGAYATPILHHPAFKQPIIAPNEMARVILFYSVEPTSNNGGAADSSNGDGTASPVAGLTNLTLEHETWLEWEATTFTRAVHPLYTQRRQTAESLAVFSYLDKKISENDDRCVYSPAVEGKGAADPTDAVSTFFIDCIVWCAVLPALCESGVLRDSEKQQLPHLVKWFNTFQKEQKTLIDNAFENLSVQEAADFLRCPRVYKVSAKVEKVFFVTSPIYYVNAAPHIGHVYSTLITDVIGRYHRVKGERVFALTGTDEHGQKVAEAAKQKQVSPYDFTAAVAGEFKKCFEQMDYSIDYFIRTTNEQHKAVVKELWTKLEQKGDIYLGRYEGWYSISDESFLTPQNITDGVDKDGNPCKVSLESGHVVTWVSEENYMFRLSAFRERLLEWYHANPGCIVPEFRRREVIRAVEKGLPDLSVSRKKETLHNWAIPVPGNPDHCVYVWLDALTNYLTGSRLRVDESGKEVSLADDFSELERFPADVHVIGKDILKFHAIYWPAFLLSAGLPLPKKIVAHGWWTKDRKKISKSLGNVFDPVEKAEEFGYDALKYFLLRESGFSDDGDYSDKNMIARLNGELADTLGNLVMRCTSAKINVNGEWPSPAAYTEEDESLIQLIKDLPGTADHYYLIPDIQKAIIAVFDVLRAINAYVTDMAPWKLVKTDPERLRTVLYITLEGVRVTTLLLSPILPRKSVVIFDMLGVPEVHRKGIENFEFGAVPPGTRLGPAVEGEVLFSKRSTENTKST

[15] = biological target: T2, Methionyl-tRNA synthetase, putative; assay type: functional, Trypanosoma brucei brucei strain 927/4 GUTat10.1; remark: listed apart in the source
[16] = Late stage counterscreen for inhibitors of Trypanosoma brucei methionyl tRNA synthetase (MetRS): Luminescence-based cell-based high throughput dose response assay to identify compounds that are cytotoxic to Jurkat human T lymphocyte cells.; assay type: functional
[17] = Counterscreen for inhibitors of Trypanosoma brucei methionyl tRNA synthetase (MetRS): Luminescence-based cell-based high throughput dose response assay to identify compounds that are cytotoxic to Jurkat human T lymphocyte cells.; assay type: functional
[18] = general mammalian cell viability loss – inhibitor set, cherry-pick, set 2, cytotoxicity control for miR-122 modulator project, dose response (AID 720697); assay type: functional, cell-based
[19] = reduced cellular PGC1a acetyl-lysine signal – cell-based, cherry-picked samples, dose response (AID 720514); assay type: functional;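 also: potency may reflect raised or lowered acetylation signal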
[20] = general mammalian cell viability loss – activator set, cherry-pick, cytotoxicity control for miR-122 modulator project, dose response (AID 720690); assay type: functional, cell-based;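 also: HEK293T human cells scored for general mammalian cytotoxicity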
[21] = activation of miR-122 Renilla sensor silencing – cell-based, Huh7 psiCHECK-miR122, Renilla luciferase, cherry-picked, dose response (AID 651956); assay type: functional;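 also: huh7 hepatoma cells stably carrying a psiCHECK-2 miR-122 sensor plasmid; renilla luciferase signal reporting endogenous miR-122 activity after 48 h compound exposure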
[22] = fluconazole-exposed Candida albicans growth modulators – fluorescence, retest, confirmation (AID 2467); assay type: functional, cell-based
[23] = biological target: T3, Mannose-6-phosphate isomerase (Homo sapiens, UniProt P34949); experiment: MPI inhibition at elevated mannose 6-phosphate – biochemical, fluorescence intensity, high mannose 6-phosphate, primary screen (AID 1220)
T3 sequence (P34949 whole entry): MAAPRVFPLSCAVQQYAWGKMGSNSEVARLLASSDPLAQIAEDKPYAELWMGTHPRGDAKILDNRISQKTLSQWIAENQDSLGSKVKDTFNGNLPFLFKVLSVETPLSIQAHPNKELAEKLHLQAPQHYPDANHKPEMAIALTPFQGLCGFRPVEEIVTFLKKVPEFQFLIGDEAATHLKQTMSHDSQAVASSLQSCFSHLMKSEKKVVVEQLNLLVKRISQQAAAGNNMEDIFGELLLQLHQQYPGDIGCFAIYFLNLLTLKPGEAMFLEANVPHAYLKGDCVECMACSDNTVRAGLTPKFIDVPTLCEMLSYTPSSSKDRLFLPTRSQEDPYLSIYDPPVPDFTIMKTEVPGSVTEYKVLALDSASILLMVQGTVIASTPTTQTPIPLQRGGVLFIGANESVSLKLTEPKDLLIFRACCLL

[24] = viability loss in THP-1 monocytes – THP-1 cells, cytotoxicity control for Vif-APOBEC3G degradation inhibitor project, dose response (AID 1117359); assay type: functional; details: THP-1
Protein Tat = biological target: T4, Protein Tat (Human immunodeficiency virus type 1 group M subtype B (isolate HXB2)(HIV-1), UniProt P04608); assay type: functional;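 also: tat binding to TAR RNA read out by fluorescence polarization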
T4 sequence (P04608 whole entry): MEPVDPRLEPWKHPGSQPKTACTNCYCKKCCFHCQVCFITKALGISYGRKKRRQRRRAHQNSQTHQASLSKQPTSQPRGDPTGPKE

[25] = NIH-3T3 fibroblast cytotoxicity, dose response, cytotoxicity control, cell-based, fluorescence, Alamar Blue, secondary assay (AID 2327); assay type: functional;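 also: NIH-3T3 mouse fibroblasts cultured with fluconazole at 8 µg/mL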
[26] = biological target: Glucose-6-phosphate 1-dehydrogenase (Homo sapiens, UniProt P11413); experiment: inhibition of Homo sapiens G6PD, dose series – biochemical, fluorescence, selectivity assay for P. falciparum G6PD inhibitor project, dose response (AID 504792); assay type: functional
Glucose-6-phosphate 1-dehydrogenase, sequence (P11413 whole entry): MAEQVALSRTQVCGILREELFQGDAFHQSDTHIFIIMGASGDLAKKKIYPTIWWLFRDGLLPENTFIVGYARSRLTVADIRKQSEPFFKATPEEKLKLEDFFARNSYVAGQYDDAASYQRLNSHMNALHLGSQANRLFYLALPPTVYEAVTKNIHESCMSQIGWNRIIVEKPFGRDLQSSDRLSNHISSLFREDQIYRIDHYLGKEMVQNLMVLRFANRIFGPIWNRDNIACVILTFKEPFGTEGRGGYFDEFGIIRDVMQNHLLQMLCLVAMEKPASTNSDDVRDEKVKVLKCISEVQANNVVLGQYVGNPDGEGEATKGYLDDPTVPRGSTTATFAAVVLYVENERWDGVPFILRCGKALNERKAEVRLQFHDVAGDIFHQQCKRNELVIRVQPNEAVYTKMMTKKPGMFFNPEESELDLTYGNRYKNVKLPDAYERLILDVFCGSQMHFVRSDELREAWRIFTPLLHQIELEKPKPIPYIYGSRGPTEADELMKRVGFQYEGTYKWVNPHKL

[27] = biological target: RNA-editing ligase 1, mitochondrial (Trypanosoma brucei brucei, UniProt P86926); experiment: inhibition of trypanosome RNA editing ligase – biochemical, fluorescence, Trypanosoma brucei, dose response (AID 1117295); assay type: functional
RNA-editing ligase 1, mitochondrial, sequence (P86926 whole entry): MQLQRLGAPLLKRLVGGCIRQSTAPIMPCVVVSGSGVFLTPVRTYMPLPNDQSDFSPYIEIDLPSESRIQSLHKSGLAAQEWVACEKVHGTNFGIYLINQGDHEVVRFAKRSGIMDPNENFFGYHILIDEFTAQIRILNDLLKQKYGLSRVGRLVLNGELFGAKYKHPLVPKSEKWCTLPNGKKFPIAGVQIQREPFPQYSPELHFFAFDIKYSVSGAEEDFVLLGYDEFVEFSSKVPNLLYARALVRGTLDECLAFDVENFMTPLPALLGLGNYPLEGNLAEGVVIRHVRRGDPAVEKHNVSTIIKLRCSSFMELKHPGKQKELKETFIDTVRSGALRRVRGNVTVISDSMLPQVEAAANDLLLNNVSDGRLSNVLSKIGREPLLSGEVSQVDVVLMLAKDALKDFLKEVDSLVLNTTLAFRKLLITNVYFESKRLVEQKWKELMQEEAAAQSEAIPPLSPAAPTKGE

Vero = experiment: viability of Vero cells under compound – cytotoxicity control for flavivirus capping enzyme inhibitors (AID 588742); assay type: functional; details: Chlorocebus sabaeus
Leucine aminopeptidase = biological target: T5, Leucine aminopeptidase (Plasmodium falciparum 3D7, UniProt Q8IL11); experiment: P. falciparum M17LAP inhibitors, primary screen, biochemical, fluorogenic H-Leu-NHMec substrate, 1536-well (AID 1619); assay type: functional
T5 sequence (Q8IL11 whole entry): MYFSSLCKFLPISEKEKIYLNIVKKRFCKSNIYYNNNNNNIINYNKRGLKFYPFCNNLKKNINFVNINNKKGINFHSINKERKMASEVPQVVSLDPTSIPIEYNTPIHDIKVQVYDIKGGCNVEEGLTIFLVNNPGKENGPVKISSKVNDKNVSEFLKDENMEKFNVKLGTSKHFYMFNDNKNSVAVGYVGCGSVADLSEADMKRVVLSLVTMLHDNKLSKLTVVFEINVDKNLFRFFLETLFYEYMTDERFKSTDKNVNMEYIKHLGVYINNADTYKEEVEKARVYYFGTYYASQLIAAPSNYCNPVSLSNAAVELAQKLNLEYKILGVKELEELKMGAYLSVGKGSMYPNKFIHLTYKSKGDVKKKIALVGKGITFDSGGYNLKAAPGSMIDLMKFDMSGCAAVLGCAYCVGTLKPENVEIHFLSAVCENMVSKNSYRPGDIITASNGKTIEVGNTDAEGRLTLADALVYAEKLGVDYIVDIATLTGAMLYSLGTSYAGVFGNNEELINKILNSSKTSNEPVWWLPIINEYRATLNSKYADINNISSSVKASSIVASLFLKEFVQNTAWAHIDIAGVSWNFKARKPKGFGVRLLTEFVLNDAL

Genome polyprotein = Genome polyprotein (dengue virus type 2, UniProt P29990); experiment: flavivirus cap methylation enzyme inhibition – biochemical, confirmation dose response, primary screen (AID 588689); assay type: functional
Genome polyprotein, sequence (P29990 2492-3391 limits assumed): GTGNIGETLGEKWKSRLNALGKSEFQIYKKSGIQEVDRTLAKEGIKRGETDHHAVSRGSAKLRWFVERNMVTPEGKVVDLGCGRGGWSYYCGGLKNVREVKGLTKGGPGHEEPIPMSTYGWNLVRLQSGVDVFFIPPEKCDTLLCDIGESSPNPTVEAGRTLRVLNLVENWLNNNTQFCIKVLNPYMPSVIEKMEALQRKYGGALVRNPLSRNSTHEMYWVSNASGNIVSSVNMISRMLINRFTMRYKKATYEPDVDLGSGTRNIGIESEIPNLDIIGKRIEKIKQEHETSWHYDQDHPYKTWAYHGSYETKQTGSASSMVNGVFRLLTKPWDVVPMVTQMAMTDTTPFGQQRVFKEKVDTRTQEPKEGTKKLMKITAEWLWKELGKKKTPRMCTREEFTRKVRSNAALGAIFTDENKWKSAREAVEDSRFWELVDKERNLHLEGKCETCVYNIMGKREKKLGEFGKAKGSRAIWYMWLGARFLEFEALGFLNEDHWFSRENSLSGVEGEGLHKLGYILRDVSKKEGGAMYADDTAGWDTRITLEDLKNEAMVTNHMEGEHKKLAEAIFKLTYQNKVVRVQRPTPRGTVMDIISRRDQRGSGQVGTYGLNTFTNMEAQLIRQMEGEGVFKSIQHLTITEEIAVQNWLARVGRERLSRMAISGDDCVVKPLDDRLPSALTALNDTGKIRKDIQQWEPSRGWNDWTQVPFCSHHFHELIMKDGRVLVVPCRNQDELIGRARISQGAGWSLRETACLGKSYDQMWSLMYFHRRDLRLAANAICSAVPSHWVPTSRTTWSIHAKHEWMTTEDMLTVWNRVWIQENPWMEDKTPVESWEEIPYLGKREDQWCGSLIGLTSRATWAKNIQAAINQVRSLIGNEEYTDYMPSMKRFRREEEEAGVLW

[28] = inhibition of Env-driven cell fusion – HIV entry, plate reader, dry powder, dose response (AID 687023); assay type: functional, cell-based
[29] = luciferase signal loss, tTA control fusion, HeLa F-luc tTA cells, dry powder, counter-screen for HIV Env fusion inhibitor project, dose response (AID 687021); assay type: functional, cell-based
[30] = viability loss in CEM21 cells – cell-based, plate reader, dry powder, cytotoxicity control, dose response (AID 687026); assay type: functional

SMILES: COc1ccc(C2=C(NC(=O)c3cccc(Cl)c3)C(=O)c3ccccc3C2=O)cc1
- AC50 [1]: 24.1 µM (active)
- AC50 [2]: 18.2 µM (active)

SMILES: c1ccc(-c2nnc(SCC3CC3)o2)cc1
- IC90 [3]: 2 µM (active)
- IC90 [4]: 2 µM (active)

SMILES: c1ccc(-c2nc(NC3CCCC3)c3ccccc3n2)cc1
- IC50 [5]: 10 µM (active)
- IC50 [6]: 21.1 µM (inactive)
- IC50 [7]: > 80 µM (inactive)

SMILES: C[C@@H]1CN([C@H](C)CO)C(=O)c2cc(N(C)C)ccc2O[C@@H](C)CCCCO[C@@H]1CN(C)S(=O)(=O)c1ccc(F)cc1
- AC50 [8]: 12.1 µM (active)

SMILES: Cc1ccc(C(=O)N2CCN(c3ccccc3)CC2)cc1C
- IC50 [9]: > 100 µM (active)

SMILES: Cc1ccc(CSCC(=O)c2cc(C)n(-c3ccc(OC(F)F)cc3)c2C)cc1
- EC50 [10]: 3.16 µM (active)

SMILES: CCOC(=O)C1CCCC12Nc1cccc3cccc(c13)N2 (stereo unspecified)
- IC50 [11]: > 100 µM (active)

SMILES: COc1ccccc1N(CC1CC1)C(=O)N1CCN(c2ccccc2C)CC1
- IC50 (Vasopressin V1b receptor): 17.9 µM (inactive)
- IC50 [12]: 0.292 µM (active)
- IC50 (Vasopressin V2 receptor): 12.3 µM (inactive)
- IC50 [13]: 12.3 µM (inactive)

SMILES: O=C1CC(SCc2nc3ccccc3[nH]2)C(=O)N1c1cccc(Cl)c1 (stereo unspecified)
- IC50 [14]: 2.6 µM (active)
- IC50 [15]: 3.81 µM (active)
- IC50 [16]: > 83.3 µM (inactive)
- IC50 [17]: 65 µM (inactive)

SMILES: COc1ccc(C#Cc2ccc([C@@H]3[C@H](CO)N4CCCCN(C(=O)Nc5ccccc5)C[C@@H]34)cc2)cc1
- AC50 [18]: 0.405 µM (active)
- AC50 [19]: 9.62 µM (active)
- AC50 [20]: 7.77 µM (active)
- AC50 [21]: 7.42 µM (active)

SMILES: CC/N=c1\scc(C)n1/N=C/c1ccc(O)c(O)c1O
- EC50 [22]: > 38 µM (not active)
- IC50 [23]: 12 µM (active)
- CC50 [24]: 29.6 µM (active)
- IC50 (Protein Tat): 54.4 µM (inconclusive)
- EC50 [25]: > 150 µM (inactive)
- IC50 [26]: 57.4 µM (inactive)
- IC50 [27]: > 96.6 µM (inactive)
- CC50 (Vero): > 40 µM (active)
- IC50 (Leucine aminopeptidase): 82.3 µM (active)
- IC50 (Genome polyprotein): 21.4 µM (active)

SMILES: COC(=O)COc1ccc(S(=O)(=O)NCc2ccncc2)cc1
- AC50 [28]: 20.7 µM (active)
- AC50 [29]: > 70 µM (inactive)
- AC50 [30]: > 70 µM (inactive)
